Source: patent US5116846A, “N-aralkyl piperidine derivatives as psychotropic drugs” (priority 1990, dated 1992)

What was measured:
[1] = Isolation-Induced Aggression in Mice; type: in vivo, mouse (male Balb/c)
Description: Male Balb/c mice (Charles River) were used. […] Isolated mice failing to consistently attack an intruder were eliminated from the colony.
Drug testing was carried out by treating the isolated mice with test drugs or standards. Fifteen minutes after dosing with test drugs by the oral route, one isolated mouse was removed from its home cage and placed in the home cage of another isolate. Scoring was a yes or no response for each pair. A maximum of 3 minutes was allowed for an attack and the pair was separated immediately upon an attack. Selection of home cage and intruder mice was randomized for each test. Mice were treated and tested twice a week with at least a 2 day washout period between treatments.

[2] = (+)-N-Allylnormetazocine-Induced Turning Behavior in Rats; type: in vivo, rat (male Sprague-Dawley); details: test drug p.o. or s.c. 20 minutes before testing; (+)-N-allylnormetazocine 4.0 mg/kg s.c.; class symbols not defined
Description: (+)-N-Allylnormetazocine-Induced Turning Behavior in Rats
Male Sprague-Dawley rats (CDlCR, Charles River), weighing 190-290 g, were used for surgery. In order to spare […] neurons, rats were injected with 25 mg/kg imipramine i.p. 30 minutes before surgery. The rats were anesthetized with a 1:1.2 ratio mixture of Xylazine:Ketamine given 0.1 mL/100 g body weight i.m. A Ringers-Wydaze (100:0.01) solution was given to prevent dehydration. Dopamine was depleted in the right striatum by injecting the neurotoxin 6-hydroxydopamine (6-OHDA) into the substantia nigra of the right cerebral hemisphere. Five mg of 6-OHDA was dissolved in 5 mL of a 0.04% ascorbic acid solution which had been deoxygenated with nitrogen. Five μL of the 6-OHDA solution was injected into the substantia nigra through a 26 gauge needle over a five minute period. […]
Rotation rate and direction were determined with Coulbourn Instruments Rotometry Monitors. Clockwise and counter clockwise rotations were recorded at 30 and 60 minute intervals. […]
The data were analyzed with an analysis of variance statistical test and individual comparisons of each dose of test drug to control were made with Dunnett's multiple range test. The ED50 was calculated with a Litchfield and Wilcoxon test using percent of control values. […]

sigma receptor = details: Tam, Eur. Pharmacol, 109:33-41 (1985); cited from earlier work

Compound: O=C(CCCN1CCC(O)(c2ccc(Cl)cc2)CC1)c1ccc(F)cc1 [Haloperidol, haloperidol]
- Inhibition of Isolation-induced Aggression ([1]; oral, fifteen minutes after dosing, class symbols not defined): potent activities in inhibiting the isolation-induced aggressive behavior
- Inhibition of Isolation-induced Aggression ([1]; po): +++
- Inhibition of (+)-N-Allylnormetazocine Induced Turning [2]: potently antagonized

Compound: c1ccc(C2(N3CCCCC3)CCCCC2)cc1 [PCP, phencyclidine]
- affinity for the sigma receptor (sigma receptor): significant affinity for the sigma receptor
